Assay results taken from US20220390432A1, “METHODS OF CHARACTERIZING AND UTILIZING AGENT-CONDENSATE INTERACTIONS” (Whitehead Institute for Biomedical Research, priority 2019, published 2022).
Entries after “also recorded” stand apart in the source; their conditions may differ.

How the values were obtained:
MED1 condensates [1] = target: T1, MED1 condensates (Homo sapiens, UniProt Q15648); assay: Determination of partitioning by spectrophotometry and quantitative phase microscopy; type: binding
T1 construct: MED1—amino acids 600-1581; 6xHis (N); made in house; host or cells: LOBSTR cells (E. coli)
Text: Here, an expression is derived briefly for the partition coefficient of a client molecule into a condensed phase in terms of quantities that are readily measurable experimentally. A sample composed of two coexisting phases is considered, named dilute and condensed, with volume fractions ϕdilute and […]. If a client molecule (e.g. a drug) is also present in the sample at an average concentration of ctotal, then mass conservation requires that
the ratio is estimated ctotal/cdilute from fluorescence spectroscopy measurements, as described in a subsequent section, while ϕcond, it is inferred from the lever rule (M. Rubinstein, R. H. Colby, Polymer Phyics (Oxford University Press, 2003) as follows: denoting the concentration of scaffold protein (e.g. MED1) by s, mass conservation gives stotal=sdiluteϕdilute+scondϕcond, in analogy with Eq. 1. Again using the requirement that the volume fractions of coexisting phases sum to 1, this can be rearranged to yield
where stotal and sdilute are measured spectrophotometrically from optical absorbance at 280 nm, and scond is measured from quantitative phase microscopy, using a coherence-controlled holographic microscope (Q-Phase, Telight (formerly TESCAN), Bmo, CZ) equipped with 40× dry objectives (NA=0.90). […]
where A is the measured absorbance (in Absorbance Units (AU)), I0 is the intensity of the incident light at a given wavelength, I is the transmitted intensity, L the path length through the sample, and c the concentration of the absorbing species. […] The partitioned drug was measured by using spin down assay. […] The supernatant was collected and measured the concentrations of the drug. The partitioned drug was calculated by subtracting from the total known concentration of drug added.
Quantitative phase measurements were performed using a coherence-controlled holographic microscope (Q-Phase, Telight (formerly TESCAN), Brno, CZ) equipped with 40× dry objectives (NA=0.90) as follows. […]
Q-PHASE software was used to construct compensated phase images from acquired holograms, which were subsequently analyzed in MATLAB using custom code. […]

MED1 condensates [2] = target: T1, MED1 condensates; assay: FRAP of in vitro droplets with drug; type: binding; details: 5 μM TR-cisplatin, 10 μM protein, 125 mM NaCl, 10% PEG
Description: For FRAP of in vitro droplets, 5 pulses of laser at a 50 us dwell time was applied to the MED1 channel and 20 pulses of laser at a 100 μs dwell time was applied to the Cisplatin channel. Recovery was imaged on an Andor microscope every 1 s for the indicated time periods. Fluorescence intensity was measured using FIJI. Post bleach FRAP recovery data was averaged over 6 replicates for each channel.

MED1 = target: T2, MED1 (Homo sapiens, UniProt Q15648); assay: In vitro droplet assay, small molecule partitioning into MED1 condensates; type: binding; details: confocal fluorescence; Example 2: 125 mM NaCl, 10% PEG, 10 μM protein; fluorescent or fluorescently labeled drug
T2 construct: MED1—amino acids 600-1581; 6xHis (N); made in house; host or cells: LOBSTR cells (E. coli)
Description: Recombinant BFP, GFP, or mCherry fusion proteins were concentrated and desalted to an appropriate protein concentration and 125 mM NaCl using Amicon Ultra centrifugal filters (30K MWCO, Millipore). Recombinant protein was added too. […] The protein solution was immediately loaded onto glass bottom 384 well plate (Cellvis P384-1.5H-N) and imaged with an Andor confocal microscope with a 150× objective. Unless indicated, images presented are of droplets settled on the glass coverslip.
Drug and small molecule concentrations used in the droplet experiments are as follows:
To analyze in vitro droplet experiments, custom Python scripts using the scikit-image package were written to identify droplets and characterize their size, shape and intensity. Droplets were segmented from average images of captured channels on various criteria: (1) an intensity threshold that was three s.d. above the mean of the image; (2) size thresholds (20 pixel minimum droplet size); and (3) a minimum circularity (circularity=4π·areaperimeter2) (circularity=4π·areaperimeter2) of 0.8 (1 being a perfect circle). After segmentation, mean intensity for each droplet was calculated while excluding pixels near the phase interface, and background-corrected by subtracting intensity of dark images of droplet formation buffer only. Droplets identified in the channel of the fluorescent protein from ten independent fields of view were quantified for each experiment. The maximum intensity of signal within the droplets was calculated for each channel, the maximum intensity in the drug channel was termed “maximum drug intensity”. To obtain the intensity of drug or dye alone in the diffuse state (termed “diffuse drug intensity”), the compound was added to droplet formation buffer at same concentration used in the droplet assay. This was then imaged on a confocal fluorescent microscope. The resulting image was processed in FIJI to obtain the fluorescent intensity of the field. To obtain the fluorescent intensity of protein droplets that bleed through in the drug channel (termed “background intensity”) protein droplets were imaged in the fluorescent channel in which the drug fluoresces and processed as above to obtain the average maximum intensity within the droplet across 10 images. The enrichment ratio was obtained by the following formula [(maximum drug intensity)−(background intensity)]/(diffuse drug intensity). The box plots show the distributions of all droplets. Each dot represents an individual droplet.

[3] = system: nuclear condensates in HCT116 cells; assay: Cisplatin treatment followed by live cell imaging, condensate score; type: cell-based, human; details: HCT116, 50 μM cisplatin, up to 12 hours
Description: HCT116 cells with the indicated GFP knock-in were plated at 35 k per well of a glass bottom 8-well chamber slide. Following incubation at 37° C. overnight, cells were treated with 50 uM cisplatin in DMEM or a 1:1000 dilution of DMSO for 12 hours. […] For representative images of each of the six tagged lines treated with vehicle or 50 μM cisplatin, cells were imaged on the Zeiss LSM 880 confocal microscope with Airyscan detector with 63× objective at 37° C. Nuclei were segmented from images of treated cells by custom Python scripts using the scikit-image, open-cv, and […] Python packages. Nuclei were segmented by median filter, thresholding, separated by the watershed algorithm, and labeled by the scikit-image label function. […] A grey-level co-occurrence matrix (GLCM) was then generated from the projected signal, and the 'correlation' texture property from the GLCM was calculated per nucleus. One-way ANOVA followed by Sidak's multiple comparisons test was performed on the correlation values across conditions using GraphPad Prism version 8.2.0 for Mac (www.graphpad.com). Finally, to derive the condensation score, these values were subtracted from 1.

T1 sequence (Q15648 600-1581): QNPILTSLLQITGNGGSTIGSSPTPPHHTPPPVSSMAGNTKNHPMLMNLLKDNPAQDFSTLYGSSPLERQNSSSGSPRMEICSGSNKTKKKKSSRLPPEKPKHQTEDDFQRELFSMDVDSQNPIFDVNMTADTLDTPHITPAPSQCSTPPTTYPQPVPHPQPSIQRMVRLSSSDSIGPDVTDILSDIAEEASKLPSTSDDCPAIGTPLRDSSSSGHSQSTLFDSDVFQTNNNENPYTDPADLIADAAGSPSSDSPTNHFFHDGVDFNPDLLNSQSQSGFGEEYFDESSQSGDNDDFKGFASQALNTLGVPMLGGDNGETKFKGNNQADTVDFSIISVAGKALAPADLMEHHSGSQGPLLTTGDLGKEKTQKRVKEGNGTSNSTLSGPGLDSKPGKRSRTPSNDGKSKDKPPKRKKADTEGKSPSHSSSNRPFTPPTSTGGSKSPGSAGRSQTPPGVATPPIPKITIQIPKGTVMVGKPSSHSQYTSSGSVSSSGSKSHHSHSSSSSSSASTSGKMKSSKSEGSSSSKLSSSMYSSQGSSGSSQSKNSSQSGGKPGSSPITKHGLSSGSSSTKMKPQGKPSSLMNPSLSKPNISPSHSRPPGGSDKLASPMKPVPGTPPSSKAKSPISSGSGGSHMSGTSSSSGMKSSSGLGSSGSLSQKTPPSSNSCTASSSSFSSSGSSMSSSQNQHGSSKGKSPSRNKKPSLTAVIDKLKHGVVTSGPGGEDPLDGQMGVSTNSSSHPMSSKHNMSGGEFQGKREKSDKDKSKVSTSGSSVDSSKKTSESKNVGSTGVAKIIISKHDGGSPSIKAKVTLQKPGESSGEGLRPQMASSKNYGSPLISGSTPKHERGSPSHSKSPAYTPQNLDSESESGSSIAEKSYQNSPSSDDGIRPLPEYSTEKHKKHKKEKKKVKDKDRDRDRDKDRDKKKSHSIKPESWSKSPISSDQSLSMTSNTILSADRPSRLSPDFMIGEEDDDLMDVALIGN
T2 sequence (Q15648 600-1581): as above

N.N.[Cl][Pt][Cl] [cisplatin]
partition coefficient in MED1 droplets (MED1 condensates [1]): up to 600
partition ratio in MED1 condensates (MED1 condensates [1]; uv spectroscopy of drug remaining in solution plus condensate volume estimate): up to 600 fold
mobility in MED1 droplets (FRAP) (MED1 condensates [2]): highly mobile
partitioning / incorporation into MED1 droplets (MED1): selectively concentrated in MED1 droplets
effect on nuclear condensates in live cells [3]: selective and progressive reduction in MED1 condensates; also recorded: Dissolution of MED1 condensates
effect on nuclear condensates in live cells ([3]; listed as Cisplatin): specifically disrupts MED1 and BRD4 condensates
